Tests used:
Test in all cases: relative viability (nuclei count vs DMSO), 5 days (fraction); higher = more cells survive
[1] = compound: C1CC(C1)(C(=O)O)C(=O)O.[NH2-].[NH2-].[Pt+2] [Carboplatin] + CCNC(=O)c1noc(-c2cc(C(C)C)c(O)cc2O)c1-c1ccc(CN2CCOCC2)cc1 [Luminespib] (partner 0.01 µM)
In short: (§1)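 Relative viability divides the nuclei count in treated wells by that in vehicle wells. Lung cancer cell lines were seeded in 1536-well plates, dosed by pin tool the next day, and fixed and stained after 5 days in one step with final 0.05% Triton X-100, 1% formaldehyde and 1 ug/ml Hoechst. Dosing was a single drug or a fixed anchor-drug dose plus five library-drug doses (not always all listed) in √10 steps, and values are medians of duplicate plates imaged at 4×.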

[2] = compound: C1CC(C1)(C(=O)O)C(=O)O.[NH2-].[NH2-].[Pt+2] [Carboplatin] + C[C@@H](Oc1cc(-c2cnn(C3CCNCC3)c2)cnc1N)c1c(Cl)ccc(F)c1Cl [Crizotinib] (partner 1 µM)
In short: as §1

[3] = compound: C1CC(C1)(C(=O)O)C(=O)O.[NH2-].[NH2-].[Pt+2] [Carboplatin] + NC(=O)Nc1cc(-c2cccc(F)c2)sc1C(=O)N[C@H]1CCCNC1 [AZD7762] (partner 0.2 µM)
In short: as §1

[4] = compound: CC[C@H](C)N1C=C(C2=C(C=C(C=C21)C3=CN=C(C=C3)N4CCNCC4)C(=O)NCC5=C(C=C(NC5=O)C)C)C [GSK126] + CS(=O)(=O)CCNCc1ccc(-c2ccc3ncnc(Nc4ccc(OCc5cccc(F)c5)c(Cl)c4)c3c2)o1 [Lapatinib] (partner 2 µM)
In short: as §1

Cell Line	relative viability ([1]; first compound 0.08 µM)	relative viability ([1]; first compound 0.253 µM)	relative viability ([1]; first compound 0.8 µM)	relative viability ([1]; first compound 2.53 µM)	relative viability ([1]; first compound 8 µM)	relative viability ([2]; first compound 0.08 µM)	relative viability ([2]; first compound 0.253 µM)	relative viability ([2]; first compound 0.8 µM)	relative viability ([2]; first compound 2.53 µM)	relative viability ([2]; first compound 8 µM)	relative viability ([3]; first compound 0.08 µM)	relative viability ([3]; first compound 0.253 µM)	relative viability ([3]; first compound 0.8 µM)	relative viability ([3]; first compound 2.53 µM)	relative viability ([3]; first compound 8 µM)	relative viability ([4]; first compound 0.08 µM)	relative viability ([4]; first compound 0.253 µM)	relative viability ([4]; first compound 0.8 µM)	relative viability ([4]; first compound 2.53 µM)	relative viability ([4]; first compound 8 µM)
NCI-H1437	1.14	1.14	0.994	1.03	0.97	0.909	0.96	0.892	0.936	0.805	1.22	1.09	0.927	0.955	1.03	0.95	0.729	0.776	0.748	0.852
EMC-BAC-2	1.22	1.15	1.15	1	0.751	0.738	0.755	0.76	0.681	0.642	1.15	0.993	1.11	1.07	0.973	0.913	0.899	0.89	0.88	0.944
NCI-H520	0.256	0.209	0.183	0.21	0.211	0.943	0.914	0.709	0.576	0.601	–	–	–	–	–	1.09	0.713	0.722	0.898	0.922
NCI-H1993	1.13	0.812	0.818	0.884	0.698	0.958	0.909	0.892	0.775	0.723	0.973	0.899	0.864	0.871	0.695	0.884	0.737	0.753	0.821	0.712
HCC-827	0.653	0.675	0.441	0.452	0.3	0.97	0.93	0.916	0.816	0.87	0.245	0.204	0.213	0.182	0.223	0.189	0.179	0.19	0.152	0.197
NCI-H2087	0.158	0.168	0.121	0.138	0.165	0.817	0.907	0.8	0.845	0.769	1.38	1.48	1.2	1.12	0.939	1.41	0.931	1.11	1.22	1.3
HARA	0.847	0.756	0.701	0.573	0.752	1.01	1.06	0.934	0.824	0.954	0.279	0.344	0.265	0.279	0.383	0.734	0.602	0.736	0.804	0.807
NCI-H2126	0.862	1.07	0.992	0.931	0.695	1.04	1.06	1.02	0.962	1	0.972	1.06	1.05	1.03	0.931	0.758	0.792	0.726	0.819	0.782
LCLC-103H	0.918	1.09	0.859	0.908	0.905	1.06	1.01	1.01	1.19	1.01	0.853	0.763	0.802	0.806	0.806	–	–	–	–	–
SK-LU-1	0.22	0.21	0.192	0.21	0.198	1.09	1.08	1.05	0.961	0.626	–	–	–	–	–	0.91	0.882	0.889	0.913	0.818
HCC-366	–	–	–	–	–	0.518	0.659	0.445	0.465	0.154	0.442	0.256	0.155	0.126	0.0971	1.02	0.948	1.08	1.09	1.12
NCI-H1650	0.212	0.217	0.189	0.215	0.196	1.2	0.968	0.907	0.824	0.533	–	–	–	–	–	0.828	0.798	0.739	0.854	0.755
COR-L23	0.617	0.678	0.568	0.254	0.163	0.561	0.645	0.606	0.48	0.28	–	–	–	–	–	1.04	0.958	0.943	0.914	0.818
NCI-H1703	–	–	–	–	–	0.835	0.574	0.65	0.971	0.636	0.144	0.13	0.101	–	0.122	1.08	1.14	0.917	1.23	1.09
NCI-H1793	0.153	0.172	0.187	0.185	0.17	–	–	–	–	–	0.667	0.457	0.393	0.334	0.58	0.867	0.467	0.647	0.583	0.629
NCI-H522	1.05	1.38	0.851	0.904	0.835	–	–	–	–	–	0.783	0.74	0.876	0.908	0.728	–	–	–	–	–
NCI-H441	0.387	0.28	0.266	0.295	0.234	0.72	0.925	0.618	0.791	0.655	1.26	1.11	0.954	0.995	0.804	–	–	–	–	–
NCI-H1395	0.864	0.543	0.731	0.458	0.331	–	–	–	–	–	0.403	0.39	0.406	0.386	0.405	1.04	0.973	1.3	1.14	1.03
NCI-H2023	0.774	0.715	0.668	0.281	0.172	0.633	0.604	0.566	0.419	0.144	–	–	–	–	–	1.33	0.797	1.04	1.23	1.2

Cell Line	relative viability ([1]; first compound 0.08 µM)	relative viability ([1]; first compound 0.253 µM)	relative viability ([1]; first compound 0.8 µM)	relative viability ([1]; first compound 2.53 µM)	relative viability ([1]; first compound 8 µM)	relative viability ([2]; first compound 0.08 µM)	relative viability ([2]; first compound 0.253 µM)	relative viability ([2]; first compound 0.8 µM)	relative viability ([2]; first compound 2.53 µM)	relative viability ([2]; first compound 8 µM)	relative viability ([3]; first compound 0.08 µM)	relative viability ([3]; first compound 0.253 µM)	relative viability ([3]; first compound 0.8 µM)	relative viability ([3]; first compound 2.53 µM)	relative viability ([3]; first compound 8 µM)	relative viability ([4]; first compound 0.08 µM)	relative viability ([4]; first compound 0.253 µM)	relative viability ([4]; first compound 0.8 µM)	relative viability ([4]; first compound 2.53 µM)	relative viability ([4]; first compound 8 µM)
NCI-H1648	–	–	–	–	–	–	–	–	–	–	0.662	0.62	0.538	0.696	0.539	–	–	–	–	–
ChaGo-K-1	0.774	0.589	0.399	0.398	0.297	1.14	1.09	0.943	0.647	0.579	0.935	0.866	0.891	0.817	0.639	–	–	–	–	–
Calu-6	–	–	–	–	–	0.916	0.924	0.763	0.639	0.338	–	–	–	–	–	1.1	1.14	1.07	1.11	1.03
EBC-1	–	–	–	–	–	0.186	0.202	0.175	0.182	0.2	–	–	–	–	–	0.232	0.188	0.178	0.21	0.202
IA-LM	–	–	–	–	–	0.772	0.818	0.767	0.694	0.486	–	–	–	–	–	1	0.717	0.708	0.762	0.892
NCI-H1563	0.526	0.506	0.499	0.482	0.565	0.975	0.901	0.834	0.853	0.854	–	–	–	–	–	1.1	1.04	0.957	0.999	0.869
NCI-H2228	0.179	0.136	0.115	0.158	0.132	0.469	0.517	0.41	0.593	0.428	–	–	–	–	–	1.11	1.15	1.06	1.16	1.33
NCI-H661	0.892	0.901	0.854	0.874	0.744	1	1.05	0.98	–	0.843	–	–	–	–	–	0.417	0.574	0.441	0.572	0.361
NCI-H1299	–	–	–	–	–	0.932	0.91	0.88	0.885	0.835	–	–	–	–	–	0.968	0.997	0.952	0.931	0.929
NCI-H2009	1.06	1.05	0.986	0.935	0.581	1.06	1	0.987	0.965	0.611	–	–	–	–	–	1.23	0.893	0.985	0.942	1.06
NCI-H2342	0.898	0.789	0.68	0.788	0.608	–	–	–	–	–	0.57	0.595	0.55	0.439	0.484	–	–	–	–	–
COR-L 105	1.04	0.851	0.677	0.667	0.648	0.814	0.812	0.757	0.609	0.501	–	–	–	–	–	0.35	0.371	0.39	0.372	0.339
SW 1573	0.298	0.293	0.344	0.579	0.222	0.821	0.781	0.652	0.886	0.661	–	–	–	–	–	1.09	1.07	0.989	1.27	1.28
HCC-78	–	–	–	–	–	0.367	0.325	0.315	0.308	0.304	0.744	0.712	0.656	0.693	0.644	0.713	1.06	0.886	0.711	0.722
SK-MES-1	0.891	0.763	0.714	0.777	0.81	0.958	1.02	1.01	0.914	0.909	–	–	–	–	–	0.496	0.455	0.482	0.431	0.46
SW 900	0.16	0.168	0.162	0.161	0.15	–	–	–	–	–	0.651	0.689	0.531	0.533	0.542	–	–	–	–	–
NCI-H1623	0.548	0.469	0.457	0.507	0.433	–	–	–	–	–	–	–	–	–	–	–	–	–	–	–
A549	–	–	–	–	–	0.963	0.789	0.697	0.598	0.294	–	–	–	–	–	1.06	1.08	0.946	0.932	0.934
